From PubChem BioAssay (NCI)
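Growth conditions: 96-well plates. Treatment: test compound, 48 hours, 5 concentrations. Analysis: linear interpolation between bracketing concentrations; unreached endpoints set to highest concentration. GI50 marks 50% less growth. At the TGI there is no net growth.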

Columns and labels:
Assay in all cases: NCI-60 cell line screen, 48 h
786-0 renal = system: 786-0 renal
A498 renal = system: A498 renal
A549 NSCLC = system: A549 NSCLC
ACHN renal = system: ACHN renal
BT-549 breast = system: BT-549 breast
CAKI-1 renal = system: CAKI-1 renal
CCRF-CEM leukemia = system: CCRF-CEM leukemia
COLO 205 colon = system: COLO 205 colon
DU-145 prostate = system: DU-145 prostate
EKVX NSCLC = system: EKVX NSCLC
HCC-2998 colon = system: HCC-2998 colon
HCT-116 colon = system: HCT-116 colon
HCT-15 colon = system: HCT-15 colon
HOP-62 NSCLC = system: HOP-62 NSCLC
HOP-92 NSCLC = system: HOP-92 NSCLC
HS 578T breast = system: HS 578T breast
HT29 colon = system: HT29 colon
IGROV1 ovarian = system: IGROV1 ovarian
K-562 leukemia = system: K-562 leukemia
KM12 colon = system: KM12 colon
LOX IMVI melanoma = system: LOX IMVI melanoma
M14 melanoma = system: M14 melanoma
MALME-3M melanoma = system: MALME-3M melanoma
MCF7 breast = system: MCF7 breast
MDA-MB-231 breast = system: MDA-MB-231 breast
MDA-MB-435 = system: MDA-MB-435
MOLT-4 leukemia = system: MOLT-4 leukemia
NCI-H226 lung = system: NCI-H226 lung
NCI-H23 lung = system: NCI-H23 lung
NCI-H460 lung = system: NCI-H460 lung
NCI-H522 lung = system: NCI-H522 lung
NCI/ADR-RES ovarian = system: NCI/ADR-RES ovarian
OVCAR-3 ovarian = system: OVCAR-3 ovarian
OVCAR-4 ovarian = system: OVCAR-4 ovarian
OVCAR-5 ovarian = system: OVCAR-5 ovarian
OVCAR-8 ovarian = system: OVCAR-8 ovarian
PC-3 prostate = system: PC-3 prostate
RPMI-8226 leukemia = system: RPMI-8226 leukemia
SF-268 CNS = system: SF-268 CNS
SF-295 CNS = system: SF-295 CNS
SF-539 CNS = system: SF-539 CNS
SK-MEL-2 melanoma = system: SK-MEL-2 melanoma
SK-MEL-28 melanoma = system: SK-MEL-28 melanoma
SK-MEL-5 melanoma = system: SK-MEL-5 melanoma
SK-OV-3 ovarian = system: SK-OV-3 ovarian
SN12C renal = system: SN12C renal
SNB-19 CNS = system: SNB-19 CNS
SNB-75 CNS = system: SNB-75 CNS
SW-620 colon = system: SW-620 colon
T-47D breast = system: T-47D breast
TK-10 renal = system: TK-10 renal
U251 CNS = system: U251 CNS
UACC-257 melanoma = system: UACC-257 melanoma
UACC-62 melanoma = system: UACC-62 melanoma
UO-31 renal = system: UO-31 renal
HL-60(TB) leukemia = system: HL-60(TB) leukemia
RXF 393 renal = system: RXF 393 renal

## Cc1ccc2c(c1)-c1c(C#N)c(N)nc(-c3ccccc3)c1CCS2(=O)=O
786-0 renal
  TGI: > 100 µM
A498 renal
  TGI: > 80.2 µM
A549 NSCLC
  TGI: > 100 µM
ACHN renal
  TGI: > 100 µM
BT-549 breast
  TGI: > 43.4 µM
CAKI-1 renal
  TGI: > 100 µM
CCRF-CEM leukemia
  TGI: > 100 µM
COLO 205 colon
  TGI: > 56.3 µM
DU-145 prostate
  TGI: > 38.9 µM
EKVX NSCLC
  TGI: > 100 µM
HCC-2998 colon
  TGI: > 100 µM
HCT-116 colon
  TGI: > 100 µM
HCT-15 colon
  TGI: > 100 µM
HOP-62 NSCLC
  TGI: > 100 µM
HOP-92 NSCLC
  TGI: > 100 µM
HS 578T breast
  TGI: > 47.6 µM
HT29 colon
  TGI: > 35 µM
IGROV1 ovarian
  TGI: > 51.1 µM
K-562 leukemia
  TGI: 11.7 µM
KM12 colon
  TGI: > 100 µM
LOX IMVI melanoma
  TGI: > 100 µM
M14 melanoma
  TGI: > 100 µM
MALME-3M melanoma
  TGI: > 100 µM
MCF7 breast
  TGI: > 100 µM
MDA-MB-231 breast
  TGI: > 100 µM
MDA-MB-435
  TGI: > 36.5 µM
MOLT-4 leukemia
  TGI: > 100 µM
NCI-H226 lung
  TGI: > 30.2 µM
NCI-H23 lung
  TGI: > 62.7 µM
NCI-H460 lung
  TGI: > 100 µM
NCI-H522 lung
  TGI: 4.58 µM
NCI/ADR-RES ovarian
  TGI: > 46.5 µM
OVCAR-3 ovarian
  TGI: > 100 µM
OVCAR-4 ovarian
  TGI: > 100 µM
OVCAR-5 ovarian
  TGI: > 100 µM
OVCAR-8 ovarian
  TGI: > 95.5 µM
PC-3 prostate
  TGI: > 100 µM
RPMI-8226 leukemia
  TGI: 32.9 µM
SF-268 CNS
  TGI: > 100 µM
SF-295 CNS
  TGI: > 100 µM
SF-539 CNS
  TGI: > 100 µM
SK-MEL-2 melanoma
  TGI: > 100 µM
SK-MEL-28 melanoma
  TGI: > 100 µM
SK-MEL-5 melanoma
  TGI: > 24 µM
SK-OV-3 ovarian
  TGI: 46 µM
SN12C renal
  TGI: > 100 µM
SNB-19 CNS
  TGI: > 46.9 µM
SNB-75 CNS
  TGI: 59.2 µM
SW-620 colon
  TGI: > 100 µM
T-47D breast
  TGI: > 100 µM
TK-10 renal
  TGI: > 100 µM
U251 CNS
  TGI: > 90.7 µM
UACC-257 melanoma
  TGI: > 100 µM
UACC-62 melanoma
  TGI: > 100 µM
UO-31 renal
  TGI: 97 µM

## CCCCNC(=O)NS(=O)(=O)c1ccc(N2N=C(c3cc(C)ccc3C)CC2c2cc(OC)c(OC)c(OC)c2)cc1 (stereo not drawn)
786-0 renal
  GI50: 3.51 µM
  TGI: 16.1 µM
A498 renal
  GI50: 2.31 µM
  TGI: 6.01 µM
A549 NSCLC
  GI50: 2.53 µM
  TGI: 9.78 µM
ACHN renal
  GI50: 3.69 µM
  TGI: 12.5 µM
BT-549 breast
  GI50: 2.73 µM
  TGI: 9.28 µM
CAKI-1 renal
  GI50: 3.07 µM
  TGI: 12.7 µM
CCRF-CEM leukemia
  GI50: 2.2 µM
  TGI: 6.12 µM
COLO 205 colon
  GI50: 2.6 µM
  TGI: 5.19 µM
DU-145 prostate
  GI50: 3.46 µM
  TGI: 11.1 µM
HCC-2998 colon
  GI50: 2.32 µM
  TGI: 4.84 µM
HCT-15 colon
  GI50: 2.81 µM
  TGI: 11.1 µM
HL-60(TB) leukemia
  GI50: 2.87 µM
  TGI: 7.62 µM
HOP-62 NSCLC
  GI50: 3.15 µM
  TGI: 10.2 µM
HOP-92 NSCLC
  GI50: 1.27 µM
  TGI: 4.63 µM
HS 578T breast
  GI50: 2.2 µM
  TGI: 5.78 µM
HT29 colon
  GI50: 2.42 µM
  TGI: 5.04 µM
IGROV1 ovarian
  GI50: 3.19 µM
  TGI: 9.96 µM
K-562 leukemia
  GI50: 3.14 µM
  TGI: 12.7 µM
KM12 colon
  GI50: 2.25 µM
  TGI: 5.26 µM
LOX IMVI melanoma
  GI50: 2.24 µM
  TGI: 4.75 µM
M14 melanoma
  GI50: 2.14 µM
  TGI: 5.97 µM
MALME-3M melanoma
  GI50: 2.4 µM
  TGI: 6.83 µM
MCF7 breast
  GI50: 2.06 µM
  TGI: 5.58 µM
MDA-MB-231 breast
  GI50: 2.36 µM
  TGI: 6.39 µM
MDA-MB-435
  GI50: 1.75 µM
  TGI: 4.24 µM
MOLT-4 leukemia
  GI50: 2.74 µM
  TGI: 8.89 µM
NCI-H226 lung
  GI50: 3.29 µM
  TGI: 13 µM
NCI-H23 lung
  GI50: 2.35 µM
  TGI: 6.22 µM
NCI-H460 lung
  GI50: 2.46 µM
  TGI: 5.96 µM
NCI-H522 lung
  GI50: 2.39 µM
  TGI: 7.75 µM
NCI/ADR-RES ovarian
  GI50: 2.95 µM
  TGI: 11.4 µM
OVCAR-3 ovarian
  GI50: 2.07 µM
  TGI: 3.99 µM
OVCAR-4 ovarian
  GI50: 2.52 µM
  TGI: 14.5 µM
OVCAR-5 ovarian
  GI50: 3.39 µM
  TGI: 11.9 µM
OVCAR-8 ovarian
  GI50: 3.03 µM
  TGI: 10.5 µM
PC-3 prostate
  GI50: 1.94 µM
  TGI: 10.4 µM
RPMI-8226 leukemia
  GI50: 1.95 µM
  TGI: 5.49 µM
RXF 393 renal
  GI50: 2.61 µM
  TGI: 6.97 µM
SF-268 CNS
  GI50: 3.16 µM
  TGI: 11.7 µM
SF-539 CNS
  GI50: 1.9 µM
  TGI: 3.88 µM
SK-MEL-2 melanoma
  GI50: 2.2 µM
  TGI: 4.84 µM
SK-MEL-28 melanoma
  GI50: 1.97 µM
  TGI: 4.73 µM
SK-MEL-5 melanoma
  GI50: 2.54 µM
  TGI: 7.01 µM
SK-OV-3 ovarian
  GI50: 3.53 µM
  TGI: 10.1 µM
SN12C renal
  GI50: 3.36 µM
  TGI: 13.4 µM
SNB-19 CNS
  GI50: 2.75 µM
  TGI: 12.7 µM
SNB-75 CNS
  GI50: 2.12 µM
  TGI: 5.83 µM
SW-620 colon
  GI50: 3.26 µM
  TGI: 12.8 µM
T-47D breast
  GI50: 3.91 µM
  TGI: 18.4 µM
TK-10 renal
  GI50: 3.44 µM
  TGI: 10.7 µM
U251 CNS
  GI50: 2.11 µM
  TGI: 5.62 µM
UACC-257 melanoma
  GI50: 3.39 µM
  TGI: 12.9 µM
UACC-62 melanoma
  GI50: 1.83 µM
  TGI: 4.27 µM
UO-31 renal
  GI50: 3.07 µM
  TGI: 12.3 µM
